Assay results published in EP1978972B1, “USE OF ALKYLGLUCOSIDE ESTERS AS BETA-DEFENSIN INDUCERS” (Pierre Fabre Dermo-Cosmétique, priority 2006, dated 2007).

How the values were obtained:
S. aureus = assay: Colonisation of skin explant by exogenous S. aureus during 24 h after adhesion step; format: cell-based, Staphylococcus aureus; conditions: systemic treatment, in words
Experimental: Il est par ailleurs possible d'observer la colonisation de l'explant par le germe exogène (S. aureus) après l'étape d'adhésion pendant 24 h. […] L'effet inverse est observé avec le traitement par le TNF-α, cytokine pro-inflammatoire, qui après avoir entraîné une forte chute de l'adhésion de S. aureus (Cf.III.4.2) ne permet pas une limitation de la croissance du germe pathogène sur l'explant et ceci au dépend du germe commensal S. epidermidis.
La figure 12 annexée illustre la comparaison de la colonisation d'une souche contaminante, S. aureus, avec celle d'une souche commensale, S. epidermis.

hBD-3 [1] = assay: Immunohistochemistry of hBD-3 peptide in reconstructed gingival epithelium; format: cell-based, human; conditions: vs untreated sample, qualitative
Experimental: (§1) Les échantillons inclus dans la résine Tissue Tek® sont coupés à froid (température de la chambre à -25°C et la température du porte-objet à - 28°C) à l'aide d'un cryostat (Leica CM 3050s, Nussloch). Les cryocoupes d'une épaisseur de 5 µm sont récupérées sur des lames porte-objet prétraitées, puis mises à sécher environ 2 h à température ambiante et stockées à -20°C pour une utilisation ultérieure. Avant de réaliser l'immuno-marquage, les coupes sont fixées à l'acétone à -20°C pendant 10 min, séchées et conservées à -20°C. Lors d'une première étape, les coupes sont hydratées puis incubées avec les anticorps primaires dirigés contre les peptides d'intérêt dilués dans du PBS. Les anticorps primaires utilisés sont les suivants : • Goat Anti-human BD-2 (500-P161G, Peprotech Inc) dilué au 1/50^e • Rabbit Anti-human defensin-3 (AB3478, Chemicon international) dilué au 1/1000^e • Rabbit Anti-human LL37 (G-075-06, Phoenix Pharmaceuticals Inc) dilué au 1/50^e
(§2) Pour révéler le complexe Antigène-Anticorps, le kit DAKO LSAB® (DAKO Corporation) est utilisé selon les recommandations du fournisseur. La révélation est réalisée à l'aide d'un substrat de la péroxydase : la 3,3'diaminobenzidine (DAB) (DAKO Corporation). […]

hBD-3 [2] = assay: Immunohistochemistry of hBD-3 peptide in skin explants; format: cell-based, human; conditions: skin explant, qualitative
Experimental: as §1, §2

laurate de butylglucoside [αβ-LBG brut]
multiplication / croissance du germe pathogène (S. aureus) sur l'explant (S. aureus): ralentit la multiplication du germe pathogène
production du peptide hBD-3 par les cellules de l'épithélium gingival reconstruit (hBD-3 [1]): confirmer la production du peptide hBD-3
production du peptide hBD-3 dans les couches supérieures de l'épiderme (hBD-3 [2]; systemic, 24 h): stimulation de la production
production du peptide hBD-3 dans les couches supérieures de l'épiderme (hBD-3 [2]; topical): stimulation de la production
